Source: PMC8490825 (Frontiers in Molecular Biosciences, 2021)
Where a SMILES comes first, the peptide text is derived from it. Bridges are numbered along the chain shown (N, C = ends).

Experiments:
[1] = target: hNaV1.1 (Homo sapiens, UniProt P35498); test: cell-based; type: cell-based
[2] = target: hNaV1.7 (Homo sapiens, UniProt Q15858); test: cell-based; type: cell-based
Sequence of hNaV1.7 (Q15858 whole entry, looked up): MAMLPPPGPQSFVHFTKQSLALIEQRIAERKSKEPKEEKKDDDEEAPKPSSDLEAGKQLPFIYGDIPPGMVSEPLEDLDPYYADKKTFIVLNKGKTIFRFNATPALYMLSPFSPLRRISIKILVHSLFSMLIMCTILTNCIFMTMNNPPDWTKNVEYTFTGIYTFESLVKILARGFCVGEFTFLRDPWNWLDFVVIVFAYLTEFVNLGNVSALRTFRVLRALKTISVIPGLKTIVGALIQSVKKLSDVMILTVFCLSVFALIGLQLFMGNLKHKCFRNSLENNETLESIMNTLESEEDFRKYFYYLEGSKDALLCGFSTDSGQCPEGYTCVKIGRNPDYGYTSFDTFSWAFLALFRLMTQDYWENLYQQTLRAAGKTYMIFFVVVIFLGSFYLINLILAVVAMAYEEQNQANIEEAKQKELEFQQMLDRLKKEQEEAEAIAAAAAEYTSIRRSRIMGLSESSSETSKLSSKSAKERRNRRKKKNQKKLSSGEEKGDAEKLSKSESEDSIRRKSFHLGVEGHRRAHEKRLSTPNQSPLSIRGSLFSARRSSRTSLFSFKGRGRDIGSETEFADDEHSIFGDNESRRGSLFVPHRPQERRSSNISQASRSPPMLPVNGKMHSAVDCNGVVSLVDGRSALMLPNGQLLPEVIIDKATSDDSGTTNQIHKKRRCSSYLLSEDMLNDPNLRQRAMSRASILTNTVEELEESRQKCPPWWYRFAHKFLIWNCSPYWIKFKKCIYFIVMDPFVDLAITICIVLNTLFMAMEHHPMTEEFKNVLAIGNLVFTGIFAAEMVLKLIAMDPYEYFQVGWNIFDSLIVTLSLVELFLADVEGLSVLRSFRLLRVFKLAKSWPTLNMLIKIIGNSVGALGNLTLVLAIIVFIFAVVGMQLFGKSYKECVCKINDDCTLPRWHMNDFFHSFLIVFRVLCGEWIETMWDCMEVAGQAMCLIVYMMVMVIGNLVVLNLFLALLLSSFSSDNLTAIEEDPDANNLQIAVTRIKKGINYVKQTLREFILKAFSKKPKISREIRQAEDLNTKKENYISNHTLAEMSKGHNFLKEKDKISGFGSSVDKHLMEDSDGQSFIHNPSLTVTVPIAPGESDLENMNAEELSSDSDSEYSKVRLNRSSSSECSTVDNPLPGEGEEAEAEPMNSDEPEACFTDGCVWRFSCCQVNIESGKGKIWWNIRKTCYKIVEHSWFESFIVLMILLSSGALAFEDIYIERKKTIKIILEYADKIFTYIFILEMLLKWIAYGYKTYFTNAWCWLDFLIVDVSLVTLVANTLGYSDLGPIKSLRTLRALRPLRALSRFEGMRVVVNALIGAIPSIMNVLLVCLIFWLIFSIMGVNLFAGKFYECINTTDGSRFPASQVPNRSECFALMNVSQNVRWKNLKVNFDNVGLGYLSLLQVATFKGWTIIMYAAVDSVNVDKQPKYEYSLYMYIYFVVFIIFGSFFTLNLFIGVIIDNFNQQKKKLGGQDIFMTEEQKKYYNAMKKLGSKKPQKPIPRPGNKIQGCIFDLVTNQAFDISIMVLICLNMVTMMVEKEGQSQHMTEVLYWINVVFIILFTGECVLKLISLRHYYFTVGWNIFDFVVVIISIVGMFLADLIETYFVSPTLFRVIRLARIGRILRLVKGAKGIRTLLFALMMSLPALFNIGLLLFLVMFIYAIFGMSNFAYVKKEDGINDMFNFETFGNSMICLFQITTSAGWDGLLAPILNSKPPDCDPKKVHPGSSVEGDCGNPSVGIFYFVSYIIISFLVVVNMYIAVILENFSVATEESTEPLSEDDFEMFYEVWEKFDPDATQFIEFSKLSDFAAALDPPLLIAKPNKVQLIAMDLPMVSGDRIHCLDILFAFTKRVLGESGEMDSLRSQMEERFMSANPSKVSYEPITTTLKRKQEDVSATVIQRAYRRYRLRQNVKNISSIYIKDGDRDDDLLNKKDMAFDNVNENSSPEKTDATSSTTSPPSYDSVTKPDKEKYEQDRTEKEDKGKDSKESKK

Compound | IC50 [1] [nM] | IC50 [2] [nM] | inhibition of NaV1.1, in words [1] | inhibition of NaV1.7, in words [2]
CSCC[C@@H]1NC(=O)CNC(=O)[C@H](CC(C)C)NC(=O)[C@@H](NC(=O)[C@H](CC(=O)O)NC(=O)[C@H](CC(=O)O)NC(=O)CN)CSSC[C@@H]2NC(=O)[C@@H]3CSSC[C@@H](C(=O)N[C@@H](CCCCN)C(=O)N[C@@H](Cc4ccc(O)cc4)C(=O)N[C@@H](CCC(N)=O)C(=O)N[C@@H](CC(C)C)C(=O)N[C@@H](Cc4c[nH]c5ccccc45)C(=O)O)NC(=O)[C@H](Cc4c[nH]c5ccccc45)NC(=O)[C@H](CCC(N)=O)NC(=O)[C@H](CC(=O)O)NC(=O)[C@H](CCCCN)NC(=O)[C@H](CCCNC(=N)N)NC(=O)[C@H](CO)NC(=O)[C@H](CSSC[C@H](NC(=O)[C@H](CO)NC(=O)[C@H](CO)NC(=O)[C@H](Cc4ccccc4)NC1=O)C(=O)N[C@@H](CC(=O)O)C(=O)N1CCC[C@H]1C(=O)N[C@@H](CC(N)=O)C(=O)N[C@@H](CC(N)=O)C(=O)N[C@@H](C)C(=O)N[C@@H](CCCCN)C(=O)N3)NC(=O)[C@H](CCCCN)NC(=O)[C@H](CCCNC(=N)N)NC(=O)[C@H](CC(N)=O)NC(=O)[C@@H]1CCCN1C2=O [Peptide D15A] (H-GDDCLGMFSSCDPNNAKCCPNRKCSRKDQWCKYQLW-OH; disulfide 4-19, 11-24, 18-31) | > 1000 | > 1000 |  | 
CSCC[C@@H]1NC(=O)CNC(=O)[C@H](CC(C)C)NC(=O)[C@@H](NC(=O)[C@H](CC(=O)O)NC(=O)[C@H](CC(=O)O)NC(=O)CN)CSSC[C@@H]2NC(=O)[C@@H]3CSSC[C@@H](C(=O)N[C@@H](CCCCN)C(=O)N[C@@H](Cc4ccc(O)cc4)C(=O)N[C@@H](CCC(N)=O)C(=O)N[C@@H](CC(C)C)C(=O)N[C@@H](Cc4c[nH]c5ccccc45)C(=O)O)NC(=O)[C@H](Cc4c[nH]c5ccccc45)NC(=O)[C@H](CCC(N)=O)NC(=O)[C@H](C)NC(=O)[C@H](CCCCN)NC(=O)[C@H](CCCNC(=N)N)NC(=O)[C@H](CO)NC(=O)[C@H](CSSC[C@H](NC(=O)[C@H](CO)NC(=O)[C@H](CO)NC(=O)[C@H](Cc4ccccc4)NC1=O)C(=O)N[C@@H](CC(=O)O)C(=O)N1CCC[C@H]1C(=O)N[C@@H](CC(N)=O)C(=O)N[C@@H](CC(N)=O)C(=O)N[C@@H](CC(=O)O)C(=O)N[C@@H](CCCCN)C(=O)N3)NC(=O)[C@H](CCCCN)NC(=O)[C@H](CCCNC(=N)N)NC(=O)[C@H](CC(N)=O)NC(=O)[C@@H]1CCCN1C2=O [Peptide D27A] (H-GDDCLGMFSSCDPNNDKCCPNRKCSRKAQWCKYQLW-OH; disulfide 4-19, 11-24, 18-31) | 287 | 353 |  | 
CSCC[C@@H]1NC(=O)CNC(=O)[C@H](CC(C)C)NC(=O)[C@@H](NC(=O)[C@H](CC(=O)O)NC(=O)[C@H](CC(=O)O)NC(=O)CN)CSSC[C@@H]2NC(=O)[C@@H]3CSSC[C@@H](C(=O)N[C@@H](CCCCN)C(=O)N[C@@H](Cc4ccc(O)cc4)C(=O)N[C@@H](CCC(N)=O)C(=O)N[C@@H](CC(C)C)C(=O)N[C@@H](Cc4c[nH]c5ccccc45)C(=O)O)NC(=O)[C@H](Cc4c[nH]c5ccccc45)NC(=O)[C@H](CCC(N)=O)NC(=O)[C@H](CC(=O)O)NC(=O)[C@H](CCCCN)NC(=O)[C@H](CCCNC(=N)N)NC(=O)[C@H](CO)NC(=O)[C@H](CSSC[C@H](NC(=O)[C@H](CO)NC(=O)[C@H](CO)NC(=O)[C@H](C)NC1=O)C(=O)N[C@@H](CC(=O)O)C(=O)N1CCC[C@H]1C(=O)N[C@@H](CC(N)=O)C(=O)N[C@@H](CC(N)=O)C(=O)N[C@@H](CC(=O)O)C(=O)N[C@@H](CCCCN)C(=O)N3)NC(=O)[C@H](CCCCN)NC(=O)[C@H](CCCNC(=N)N)NC(=O)[C@H](CC(N)=O)NC(=O)[C@@H]1CCCN1C2=O [Peptide F7A] (H-GDDCLGMASSCDPNNDKCCPNRKCSRKDQWCKYQLW-OH; disulfide 4-19, 11-24, 18-31) | > 1000 | > 1000 | completely lost its inhibition | completely lost its inhibition
CSCC[C@@H]1NC(=O)CNC(=O)[C@H](CC(C)C)NC(=O)[C@@H](NC(=O)[C@H](CC(=O)O)NC(=O)[C@H](CC(=O)O)NC(=O)CN)CSSC[C@@H]2NC(=O)[C@@H]3CSSC[C@@H](C(=O)N[C@@H](C)C(=O)N[C@@H](Cc4ccc(O)cc4)C(=O)N[C@@H](CCC(N)=O)C(=O)N[C@@H](CC(C)C)C(=O)N[C@@H](Cc4c[nH]c5ccccc45)C(=O)O)NC(=O)[C@H](Cc4c[nH]c5ccccc45)NC(=O)[C@H](CCC(N)=O)NC(=O)[C@H](CC(=O)O)NC(=O)[C@H](CCCCN)NC(=O)[C@H](CCCNC(=N)N)NC(=O)[C@H](CO)NC(=O)[C@H](CSSC[C@H](NC(=O)[C@H](CO)NC(=O)[C@H](CO)NC(=O)[C@H](Cc4ccccc4)NC1=O)C(=O)N[C@@H](CC(=O)O)C(=O)N1CCC[C@H]1C(=O)N[C@@H](CC(N)=O)C(=O)N[C@@H](CC(N)=O)C(=O)N[C@@H](CC(=O)O)C(=O)N[C@@H](CCCCN)C(=O)N3)NC(=O)[C@H](CCCCN)NC(=O)[C@H](CCCNC(=N)N)NC(=O)[C@H](CC(N)=O)NC(=O)[C@@H]1CCCN1C2=O [Peptide K31A] (H-GDDCLGMFSSCDPNNDKCCPNRKCSRKDQWCAYQLW-OH; disulfide 4-19, 11-24, 18-31) | > 1000 | > 1000 | loss of activity | loss of activity
CSCC[C@@H]1NC(=O)CNC(=O)[C@H](CC(C)C)NC(=O)[C@@H](NC(=O)[C@H](CC(=O)O)NC(=O)[C@H](CC(=O)O)NC(=O)CN)CSSC[C@@H]2NC(=O)[C@@H]3CSSC[C@@H](C(=O)N[C@@H](CCCCN)C(=O)N[C@@H](Cc4ccc(O)cc4)C(=O)N[C@@H](CCC(N)=O)C(=O)N[C@@H](C)C(=O)N[C@@H](Cc4c[nH]c5ccccc45)C(=O)O)NC(=O)[C@H](Cc4c[nH]c5ccccc45)NC(=O)[C@H](CCC(N)=O)NC(=O)[C@H](CC(=O)O)NC(=O)[C@H](CCCCN)NC(=O)[C@H](CCCNC(=N)N)NC(=O)[C@H](CO)NC(=O)[C@H](CSSC[C@H](NC(=O)[C@H](CO)NC(=O)[C@H](CO)NC(=O)[C@H](Cc4ccccc4)NC1=O)C(=O)N[C@@H](CC(=O)O)C(=O)N1CCC[C@H]1C(=O)N[C@@H](CC(N)=O)C(=O)N[C@@H](CC(N)=O)C(=O)N[C@@H](CC(=O)O)C(=O)N[C@@H](CCCCN)C(=O)N3)NC(=O)[C@H](CCCCN)NC(=O)[C@H](CCCNC(=N)N)NC(=O)[C@H](CC(N)=O)NC(=O)[C@@H]1CCCN1C2=O [Peptide L34A] (H-GDDCLGMFSSCDPNNDKCCPNRKCSRKDQWCKYQAW-OH; disulfide 4-19, 11-24, 18-31) | > 1000 | > 1000 |  | 
CC(C)C[C@@H]1NC(=O)[C@@H](NC(=O)[C@H](CC(=O)O)NC(=O)[C@H](CC(=O)O)NC(=O)CN)CSSC[C@@H]2NC(=O)[C@@H]3CSSC[C@@H](C(=O)N[C@@H](CCCCN)C(=O)N[C@@H](Cc4ccc(O)cc4)C(=O)N[C@@H](CCC(N)=O)C(=O)N[C@@H](CC(C)C)C(=O)N[C@@H](Cc4c[nH]c5ccccc45)C(=O)O)NC(=O)[C@H](Cc4c[nH]c5ccccc45)NC(=O)[C@H](CCC(N)=O)NC(=O)[C@H](CC(=O)O)NC(=O)[C@H](CCCCN)NC(=O)[C@H](CCCNC(=N)N)NC(=O)[C@H](CO)NC(=O)[C@H](CSSC[C@H](NC(=O)[C@H](CO)NC(=O)[C@H](CO)NC(=O)[C@H](Cc4ccccc4)NC(=O)[C@H](C)NC(=O)CNC1=O)C(=O)N[C@@H](CC(=O)O)C(=O)N1CCC[C@H]1C(=O)N[C@@H](CC(N)=O)C(=O)N[C@@H](CC(N)=O)C(=O)N[C@@H](CC(=O)O)C(=O)N[C@@H](CCCCN)C(=O)N3)NC(=O)[C@H](CCCCN)NC(=O)[C@H](CCCNC(=N)N)NC(=O)[C@H](CC(N)=O)NC(=O)[C@@H]1CCCN1C2=O [Peptide M6A] (H-GDDCLGAFSSCDPNNDKCCPNRKCSRKDQWCKYQLW-OH; disulfide 4-19, 11-24, 18-31) | > 1000 | > 1000 |  | 
CSCC[C@@H]1NC(=O)CNC(=O)[C@H](CC(C)C)NC(=O)[C@@H](NC(=O)[C@H](CC(=O)O)NC(=O)[C@H](CC(=O)O)NC(=O)CN)CSSC[C@@H]2NC(=O)[C@@H]3CSSC[C@@H](C(=O)N[C@@H](CCCCN)C(=O)N[C@@H](Cc4ccc(O)cc4)C(=O)N[C@@H](CCC(N)=O)C(=O)N[C@@H](CC(C)C)C(=O)N[C@@H](Cc4c[nH]c5ccccc45)C(=O)O)NC(=O)[C@H](Cc4c[nH]c5ccccc45)NC(=O)[C@H](CCC(N)=O)NC(=O)[C@H](CC(=O)O)NC(=O)[C@H](CCCCN)NC(=O)[C@H](CCCNC(=N)N)NC(=O)[C@H](CO)NC(=O)[C@H](CSSC[C@H](NC(=O)[C@H](CO)NC(=O)[C@H](CO)NC(=O)[C@H](Cc4ccccc4)NC1=O)C(=O)N[C@@H](CC(=O)O)C(=O)N[C@@H](C)C(=O)N[C@@H](CC(N)=O)C(=O)N[C@@H](CC(N)=O)C(=O)N[C@@H](CC(=O)O)C(=O)N[C@@H](CCCCN)C(=O)N3)NC(=O)[C@H](CCCCN)NC(=O)[C@H](CCCNC(=N)N)NC(=O)[C@H](CC(N)=O)NC(=O)[C@@H]1CCCN1C2=O [Peptide P12A] (H-GDDCLGMFSSCDANNDKCCPNRKCSRKDQWCKYQLW-OH; disulfide 4-19, 11-24, 18-31) | > 1000 | > 1000 |  | 
CSCC[C@@H]1NC(=O)CNC(=O)[C@H](CC(C)C)NC(=O)[C@@H](NC(=O)[C@H](CC(=O)O)NC(=O)[C@H](CC(=O)O)NC(=O)CN)CSSC[C@@H]2NC(=O)[C@@H]3CSSC[C@@H](C(=O)N[C@@H](CCCCN)C(=O)N[C@@H](Cc4ccc(O)cc4)C(=O)N[C@@H](CCC(N)=O)C(=O)N[C@@H](CC(C)C)C(=O)N[C@@H](Cc4c[nH]c5ccccc45)C(=O)O)NC(=O)[C@H](Cc4c[nH]c5ccccc45)NC(=O)[C@H](C)NC(=O)[C@H](CC(=O)O)NC(=O)[C@H](CCCCN)NC(=O)[C@H](CCCNC(=N)N)NC(=O)[C@H](CO)NC(=O)[C@H](CSSC[C@H](NC(=O)[C@H](CO)NC(=O)[C@H](CO)NC(=O)[C@H](Cc4ccccc4)NC1=O)C(=O)N[C@@H](CC(=O)O)C(=O)N1CCC[C@H]1C(=O)N[C@@H](CC(N)=O)C(=O)N[C@@H](CC(N)=O)C(=O)N[C@@H](CC(=O)O)C(=O)N[C@@H](CCCCN)C(=O)N3)NC(=O)[C@H](CCCCN)NC(=O)[C@H](CCCNC(=N)N)NC(=O)[C@H](CC(N)=O)NC(=O)[C@@H]1CCCN1C2=O [Peptide Q28A] (H-GDDCLGMFSSCDPNNDKCCPNRKCSRKDAWCKYQLW-OH; disulfide 4-19, 11-24, 18-31) | > 1000 | > 1000 |  | 
